Experimental data as given in paper PMC10563463 (Cell Transplantation, 2023).

Target: recombinant human SUV39H1 (rhSUV39H1) (Homo sapiens, UniProt O43463)
Experiment: biochemical

recombinant human SUV39H1 (rhSUV39H1), sequence (O43463 whole entry): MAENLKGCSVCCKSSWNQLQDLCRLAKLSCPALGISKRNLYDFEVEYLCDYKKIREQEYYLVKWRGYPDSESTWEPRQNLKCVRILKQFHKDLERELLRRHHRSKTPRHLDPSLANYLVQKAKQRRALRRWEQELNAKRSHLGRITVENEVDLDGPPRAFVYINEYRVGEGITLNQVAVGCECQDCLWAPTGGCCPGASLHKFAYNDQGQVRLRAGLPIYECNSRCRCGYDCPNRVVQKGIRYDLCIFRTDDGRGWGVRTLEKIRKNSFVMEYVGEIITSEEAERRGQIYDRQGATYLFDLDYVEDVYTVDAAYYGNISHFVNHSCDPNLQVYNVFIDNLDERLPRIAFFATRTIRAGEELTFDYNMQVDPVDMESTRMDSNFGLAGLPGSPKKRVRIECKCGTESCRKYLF

CC(C)(O)[C@@H]1CC[C@](C)([C@H]2[C@@H](O)C[C@@]3(C)[C@@H]4C[C@H](O[C@@H]5O[C@H](CO)[C@@H](O)[C@H](O)[C@H]5O)[C@H]5C(C)(C)[C@@H](O[C@@H]6OC[C@@H](O)[C@H](O)[C@H]6O)CC[C@@]56C[C@@]46CC[C@]23C)O1 [Astragaloside IV]
Kd: 21.4 µM
